Key:
[1] = system: HOP-92; experiment: NCI screening panel (SRB); type: cell-based; conditions: Homo sapiens, HOP-92 (NSCLC), 48 h; for CC50: read-out: LC50 (the source's name)
[2] = system: MDA-MB-435; experiment: NCI screening panel (SRB); type: cell-based; conditions: Homo sapiens, MDA-MB-435 (Melanoma), 48 h; for CC50: read-out: LC50 (the source's name)
[3] = system: SR; experiment: NCI screening panel (SRB); type: cell-based; conditions: Homo sapiens, SR (Leukemia), 48 h; for CC50: read-out: LC50 (the source's name)
[4] = system: HS578T; experiment: NCI screening panel (SRB); type: cell-based; conditions: Homo sapiens, Hs-578T, HS578T (Breast), 48 h; for CC50: read-out: LC50 (the source's name)
[5] = system: SK-MEL-28; experiment: NCI screening panel (SRB); type: cell-based; conditions: Homo sapiens, SK-MEL-28 (Melanoma), 48 h; for CC50: read-out: LC50 (the source's name)
[6] = system: K-562; experiment: NCI screening panel (SRB); type: cell-based; conditions: Homo sapiens, K562, K-562 (Leukemia), 48 h; for CC50: read-out: LC50 (the source's name)
[7] = system: UO-31; experiment: NCI screening panel (SRB); type: cell-based; conditions: Homo sapiens, UO-31 (Renal), 48 h; for CC50: read-out: LC50 (the source's name)
[8] = system: SF-268; experiment: NCI screening panel (SRB); type: cell-based; conditions: Homo sapiens, SF-268 (CNS), 48 h; for CC50: read-out: LC50 (the source's name)
[9] = system: KM12; experiment: NCI screening panel (SRB); type: cell-based; conditions: Homo sapiens, KM12 (Colon), 48 h; for CC50: read-out: LC50 (the source's name)
[10] = system: EGFR (L747-T751del, Sins); experiment: Kinase assays, selectivity panel (qPCR)
[11] = system: SNB-75; experiment: NCI screening panel (SRB); type: cell-based; conditions: Homo sapiens, SNB-75 (CNS), 48 h; for CC50: read-out: LC50 (the source's name)
[12] = Microsomal stability; type: in vitro ADME; conditions: Human liver microsomes with NADPH; for Remaining Percentage (%) after 60 min: 1 μM
Method: (§1) Working stocks were initially diluted to a concentration of 40.0 μM in 0.1 M potassium phosphate buffer before addition to the reaction vials. Pooled mouse (CD-1, male) or human (50 donors) liver microsomes were utilized at a final concentration of 0.5 mg/ml. […] Reactions were carried out at 37° C. in a shaker, and the final concentration of DMSO was kept constant at 0.01%. The final volume for each reaction was 100 μL, which includes the addition of an NADPH-Regeneration solution (NRS) mix. This NRS mix is comprised of glucose 6-phosphate dehydrogenase (0.4 U/mL), NADP+(1.3 mM), MgCl2 (3.3 mM), and glucose 6-phosphate (3.3 mM) in assay mixtures. […] Samples were then centrifuged at 4,000 rpm for 10 minutes to remove debris and precipitated protein. Approximately 150 μL of supernatant was subsequently transferred to a new 96 well microplate for LC/MS analysis.
(§2) Narrow-window mass extraction LC/MS analysis was performed for all samples using a Waters Xevo quadrupole time-of-flight (QTof) mass spectrometer and an ACQUITY UPLC system, to determine relative peak areas of parent compound.

[13] = system: SK-MEL-5; experiment: NCI screening panel (SRB); type: cell-based; conditions: Homo sapiens, SK-MEL-5 (Melanoma), 48 h; for CC50: read-out: LC50 (the source's name)
[14] = Microsomal stability; type: in vitro ADME, mouse (CD-1, male); conditions: Mouse liver microsomes with NADPH; for Remaining Percentage (%) after 60 min: 1 μM; for half-life at 1 μM / microsomal CLint at 1 μM: male, CD-1
Method: as §1, §2

[15] = system: T-47D; experiment: NCI screening panel (SRB); type: cell-based; conditions: Homo sapiens, T47D, T-47D (Breast), 48 h; for CC50: read-out: LC50 (the source's name)
[16] = target: SRC (Homo sapiens, UniProt P12931); experiment: Kinase assays, selectivity panel (qPCR); conditions: read-out: % Control @ 300 nM
[17] = system: MCF7; experiment: NCI screening panel (SRB); type: cell-based; conditions: Homo sapiens, MCF7 (Breast), 48 h; for CC50: read-out: LC50 (the source's name)
[18] = Log P determination (HPLC with reference substances); type: physicochemical; conditions: HPLC retention against reference substances of known log P
Method: Prepare thiourea in acetonitrile and ultrapure water mixture (1:1 in v:v) as unretained organic substance sample. Prepare acetanilide, methyl benzoate, benzophenone, benzyl benzoate, fluoranthene and DDT in acetonitrile and ultrapure water mixture (1:1 in v:v) as reference substances mixture.
Prepare the stock solutions of test compounds and control compound progesterone in acetonitrile at the concentration of 2 mM. Dilute one volume of the stock solution with one volume of ultrapure water. If not soluble, filtrate the sample using a 0.45 μm nylon membrane.
Prepare acidic or basic mobile phase according to the character of test compounds. Run a blank sample (ultrapure water mixture (1:1 in v:v)), followed by unretained organic substance sample and reference substances mixture. Then run the test compounds and control compound in singlet, and at the end of the batch rerun the reference substances mixture.

[19] = in vitro; conditions: human, Caco-2, pH 7.4
Method: At this stage of growth, cell monolayers were fully polarized and differentiated.
The permeability assay buffer was Hanks Balanced Salt Solution containing 10 mM HEPES and 15 mM glucose at a pH of 7.4. The dosing buffer contained 5 μM metoprolol (positive control), 5 μM atenolol (negative control) and 100 μM lucifer yellow. The buffer in the receiver chamber also contained 1% bovine serum albumin (BSA). The dosing solution concentration was 5 μM in the assay buffer. Digoxin (20 μM) was used as Pgp substrate control.
The known Pgp inhibitor was co-dosed at 50 μM with compound at 5 μM.
Cell monolayers were dosed on the apical side (A-to-B) or basolateral side (B-to-A) and incubated at 37° C. in a shaker (65 rpm). Samples were taken from the donor and receiver chambers at 120 minutes. Each determination was performed in duplicate.
Narrow-window mass extraction LC/MS analysis was performed for all samples from this study using a Waters Xevo quadrupole time-of-flight (QTof) mass spectrometer, to determine relative peak areas of parent compound. The percent of transported drug was calculated based on these peak areas, relative to the initial, dosing concentration.

Chain of SRC (P12931 whole entry): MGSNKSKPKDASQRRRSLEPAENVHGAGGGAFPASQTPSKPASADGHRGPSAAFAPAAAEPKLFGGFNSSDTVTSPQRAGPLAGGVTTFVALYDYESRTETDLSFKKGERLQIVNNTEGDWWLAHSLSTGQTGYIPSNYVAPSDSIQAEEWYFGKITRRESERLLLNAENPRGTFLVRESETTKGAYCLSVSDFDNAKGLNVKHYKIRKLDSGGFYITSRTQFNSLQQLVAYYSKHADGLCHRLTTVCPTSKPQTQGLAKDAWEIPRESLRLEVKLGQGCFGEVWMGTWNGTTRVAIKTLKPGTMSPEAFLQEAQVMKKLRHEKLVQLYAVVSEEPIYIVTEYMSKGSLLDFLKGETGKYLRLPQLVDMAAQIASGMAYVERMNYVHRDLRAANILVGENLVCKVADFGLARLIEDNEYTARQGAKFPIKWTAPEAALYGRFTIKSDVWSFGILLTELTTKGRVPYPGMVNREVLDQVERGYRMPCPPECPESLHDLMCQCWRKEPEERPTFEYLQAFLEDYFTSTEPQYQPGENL

Compound `CN(C)C/C=C/C(=O)Nc1cc2c(Nc3ccc(F)c(Cl)c3F)ncnc2cc1OCCOC(F)F.O=C(O)/C=C\C(=O)O.O=C(O)/C=C\C(=O)O` [Example I-9-MA, (E)-N-[4-(3-chloro-2,4-difluoro-anilino)-7-[2-(difluoromethoxy)ethoxy]quinazolin-6-yl]-4-(dimethylamino)but-2-enamide di-maleic acid salt] has a GI50 [1] of 185 nM, a CC50 [1] of 31200 nM and a GI50 [2] of 1170 nM. The CC50 [2] was 27200 nM, the GI50 [3] was 439 nM and the CC50 [3] was 59200 nM. The GI50 [4] was 1240 nM, the CC50 [4] was > 100000 nM and the GI50 [5] was 2290 nM. It also gave a CC50 [5] of 36200 nM, a GI50 [6] of 459 nM and a CC50 [6] of 61900 nM. The GI50 [7] was < 10 nM, the CC50 [7] was 14600 nM and the GI50 [8] was 747 nM. It also gave a CC50 [8] of 27300 nM, a GI50 [9] of 1880 nM and a CC50 [9] of 29200 nM. The “% Control @ 300 nM” value [10] was 8.6%, the GI50 [11] was 129 nM and the CC50 [11] was 23600 nM. For the same compound, the half-life at 1 μM [12] was 59.1 min, the microsomal CLint at 1 μM [12] was 23.4 µL/min/mg and the “Remaining Percentage (%) after 60 min” value [12] was 47.73%. The GI50 [13] was 1650 nM, the CC50 [13] was 7390 nM and the “Remaining Percentage (%) after 60 min” value [14] was 30.53%. For the same compound, the half-life at 1 μM [14] was 35.2 min, the microsomal CLint at 1 μM [14] was 39.4 µL/min/mg and the GI50 [15] was < 10 nM. The CC50 [15] was 88100 nM, the remaining activity at 0.3 µM [16] was 3.5% and the GI50 [17] was 1400 nM. The CC50 [17] was 57800 nM.

`CN(C)C/C=C/C(=O)Nc1cc2c(Nc3ccc(F)c(Cl)c3)ncnc2cc1O[C@H]1CCOC1` [Afatinib, reference compound] gave a chromatographic logP [18] of 4.26, a Papp A→B at 120 min, 5 µM [19] of 0.81 ×10⁻⁶ cm/s and a Papp B→A at 120 min, 5 µM [19] of 16 ×10⁻⁶ cm/s.

`O=C(/C=C/CN1CCCCC1)Nc1cc2c(Nc3ccc(F)c(Cl)c3F)ncnc2cc1OCCOC(F)F.O=C(O)/C=C\C(=O)O.O=C(O)/C=C\C(=O)O` [Example I-10-MA, (E)-N-[4-(3-chloro-2,4-difluoro-anilino)-7-[2-(difluoromethoxy)ethoxy]quinazolin-6-yl]-4-(1-piperidyl)but-2-enamide di-maleic acid salt] gave a GI50 [1] of 151 nM, a CC50 [1] of 21100 nM and a GI50 [2] of 1800 nM. For the same compound, the CC50 [2] was 28600 nM, the GI50 [3] was 816 nM and the CC50 [3] was > 100000 nM. For the same compound, the GI50 [4] was 1410 nM, the CC50 [4] was > 100000 nM and the GI50 [5] was 2490 nM. For the same compound, the CC50 [5] was 36500 nM, the GI50 [6] was 1030 nM and the CC50 [6] was > 100000 nM. It also gave a GI50 [7] of 13.4 nM, a CC50 [7] of 39100 nM and a GI50 [8] of 1250 nM. It also gave a CC50 [8] of 41700 nM, a GI50 [9] of 2670 nM and a CC50 [9] of 34300 nM. The “% Control @ 300 nM” value [10] was 0%, the GI50 [11] was 274 nM and the CC50 [11] was 31000 nM. For the same compound, the half-life at 1 μM [12] was 86.9 min, the microsomal CLint at 1 μM [12] was 15.9 µL/min/mg and the “Remaining Percentage (%) after 60 min” value [12] was 60.64%. For the same compound, the GI50 [13] was 1630 nM, the CC50 [13] was 6250 nM and the “Remaining Percentage (%) after 60 min” value [14] was 48.95%. The half-life at 1 μM [14] was 57.8 min, the microsomal CLint at 1 μM [14] was 24 µL/min/mg and the GI50 [15] was 81.4 nM. The CC50 [15] was > 100000 nM, the remaining activity at 0.3 µM [16] was 4.8% and the GI50 [17] was 1840 nM. It also gave a CC50 [17] of 59800 nM.

In the case of `CN(C)C/C=C/C(=O)Nc1cc2c(Nc3cccc(Cl)c3F)ncnc2cc1OCCOC(F)F.O=C(O)/C=C\C(=O)O` [Example I-5-MA, (E)-N-[4-(3-chloro-2-fluoro-anilino)-7-[2-(difluoromethoxy)ethoxy]quinazolin-6-yl]-4-(dimethylamino)but-2-enamide dimaleic acid salt], the chromatographic logP [18] is reported as 3.57, the Papp A→B at 120 min, 5 µM [19] is reported as 13.5 ×10⁻⁶ cm/s and the Papp B→A at 120 min, 5 µM [19] is reported as 6.52 ×10⁻⁶ cm/s.
